Reference: patent US9457033B2, “Steroid alkaloids and uses thereof as antimicrobial agents against electron transport-deficient microbes and as potentiators for antimicrobial agents against pathogenic bacteria” (priority 2011, dated 2016)

Key:
S. hominis sho23 = test: MIC, microdilution, with or without tomatidine; settings: S. hominis sho23
[1] = test system: S. aureus CF07-L (normal strain); test: MIC, microdilution in BHI 48 h (Examples 1, 3); type: cell-based, Staphylococcus aureus
S. aureus CF6B-L = test: MIC, microdilution in CAMHB 24 h; type: cell-based, Staphylococcus aureus; settings: CF6B-L
S. aureus MA078038 = test: MIC, microdilution in CAMHB 24 h; type: cell-based, Staphylococcus aureus
S. haemolyticus sh032 = test: MIC, microdilution, with or without tomatidine; settings: S. haemolyticus sh032
[2] = test system: S. aureus CF1A-L (normal strain); test: MIC, microdilution in BHI 48 h; type: cell-based, Staphylococcus aureus; settings: CF1A-L, normal strain
S. hominis ssp008c = test: MIC, microdilution, with or without tomatidine; settings: S. hominis ssp008c
S. aureus ATCC 29213 [3] = test: MIC, microdilution in CAMHB 24 h, with or without tomatidine/compound; type: cell-based, Staphylococcus aureus; settings: for MIC −TO: absence of tomatidine
[4] = test system: S. aureus SCV NewbouldΔhemB; test: MIC, microdilution in BHI 48 h; type: cell-based, Staphylococcus aureus; settings: NewbouldΔhemB, SCV
S. haemolyticus sh022 = test: MIC, microdilution, with or without tomatidine; settings: S. haemolyticus sh022
S. aureus SCV CF1D-S = test: MIC, microdilution in BHI 48 h; type: cell-based, Staphylococcus aureus; settings: CF1D-S, SCV
S. aureus Sa228c = test: MIC, microdilution in CAMHB 24 h; type: cell-based, Staphylococcus aureus; settings: Sa228c, 8 μg/ml of tomatidine
[5] = test system: S. epidermidis ATCC 12228; test: MIC, microdilution, with or without tomatidine; settings: S. epidermidis ATCC 12228
normal strain CF07-L = test: Broth growth with gentamicin or tomatidine, visually evaluated (FIG. 5A); settings: gentamicin at 4 μg/ml or tomatidine at 0.12 μg/ml alone, 48 h
S. aureus SCV CF07-S = test: MIC, microdilution in BHI 48 h (Examples 1, 3); type: cell-based, Staphylococcus aureus
[6] = test system: S. aureus Newbould (normal strain); test: MIC, microdilution in BHI 48 h; type: cell-based, Staphylococcus aureus; settings: Newbould, normal strain
S. aureus MRSA COL = test: MIC, microdilution in CAMHB 24 h; type: cell-based, Staphylococcus aureus; settings: MRSA COL
[7] = test system: S. epidermidis ATCC 35984; test: MIC, microdilution, with or without tomatidine; settings: S. epidermidis ATCC 35984
[8] = test system: all tested S. aureus strains; test: Average potentiation of aminoglycoside MIC by tomatidine (FIGS. 6, 7); type: cell-based, Staphylococcus aureus; settings: tomatidine at 8 μg/ml
S. aureus ATCC 29213 [9] = test: MIC, microdilution in BHI 48 h (Examples 1, 3); type: cell-based, Staphylococcus aureus
[10] = ATCC 29123, 8 μg/ml of tomatidine

gentamicin was tested, and the “Fold (−TO/+TO)” value (S. hominis sho23; 8 μg/ml of tomatidine) was 2 fold, the “MIC +TO” value (S. hominis sho23; 8 μg/ml of tomatidine) was 0.06 µg/mL and the “MIC −TO” value (S. hominis sho23; absence of tomatidine) was 0.12 µg/mL. For the same substance, the MIC ([1]; CF07-L + HQNO at 20 μg/ml) was 4 µg/mL, the MIC ([1]; CF07-L, normal strain) was 1 to 2 µg/mL and the MIC ([1]; CF07-L, without HQNO) was 1 to 2 µg/mL. For the same substance, the “MIC +TO” value (S. aureus CF6B-L; aac(6′)-aph(2″), 8 μg/ml of tomatidine) was 16 to 32 µg/mL, the “MIC −TO” value (S. aureus CF6B-L; aac(6′)-aph(2″), absence of tomatidine) was 128 to 256 µg/mL and the “Fold (−TO/+TO)” value (S. aureus CF6B-L; 8 μg/ml of tomatidine) was 4-8 fold. For the same substance, the MIC (S. aureus CF6B-L; Human (CF lungs)) was 128-256 (R) μg/ml, the “MIC +TO” value (S. aureus MA078038; MA078038, aph(3′)-IIIa, 8 μg/ml of tomatidine) was 0.06 µg/mL and the “MIC −TO” value (S. aureus MA078038; MA078038, aph(3′)-IIIa, absence of tomatidine) was 0.25 to 0.5 µg/mL. The “Fold (−TO/+TO)” value (S. aureus MA078038; MA078038, 8 μg/ml of tomatidine) was 4-8 fold, the MIC (S. aureus MA078038; MA078038, Human (CA), MRSA) was 0.25 to 0.5 µg/mL and the “Fold (−TO/+TO)” value (S. haemolyticus sh032; 8 μg/ml of tomatidine) was 8 fold. The “MIC +TO” value (S. haemolyticus sh032; 8 μg/ml of tomatidine) was 8 µg/mL, the “MIC −TO” value (S. haemolyticus sh032; absence of tomatidine) was 64 µg/mL and the MIC [2] was 1 to 2 µg/mL. The “Fold (−TO/+TO)” value (S. hominis ssp008c; 8 μg/ml of tomatidine) was 4 fold, the “MIC +TO” value (S. hominis ssp008c; 8 μg/ml of tomatidine) was 2 µg/mL and the “MIC −TO” value (S. hominis ssp008c; absence of tomatidine) was 8 µg/mL. For the same substance, the “Fold (−TO/+TO)” value (S. aureus ATCC 29213 [3]; [10]) was 8-32 fold, the “MIC +TO” value (S. aureus ATCC 29213 [3]; [10]) was 0.03 to 0.06 µg/mL and the “MIC −TO” value (S. aureus ATCC 29213 [3]; ATCC 29123) was 0.5 to 1 µg/mL. For the same substance, the MIC (S. aureus ATCC 29213 [3]; ATCC 29213, Human (SSTI)) was 0.5 to 1 µg/mL, the “MIC −TO” value (S. aureus ATCC 29213 [3]; ATCC 29213) was 0.5-1^ μg/ml and the “MIC +TO” value (S. aureus ATCC 29213 [3]; ATCC 29213, presence of tomatidine at 8 μg/ml) was 0.03 to 0.06 µg/mL. For the same substance, the “Fold (−TO/+TO)” value (S. aureus ATCC 29213 [3]; ATCC 29213, tomatidine at 8 μg/ml) was 8-32 fold, the MIC [4] was 4 to 8 µg/mL and the “Fold (−TO/+TO)” value (S. haemolyticus sh022; 8 μg/ml of tomatidine) was 4 fold. The “MIC +TO” value (S. haemolyticus sh022; 8 μg/ml of tomatidine) was 4 µg/mL, the “MIC −TO” value (S. haemolyticus sh022; absence of tomatidine) was 16 µg/mL and the MIC (S. aureus SCV CF1D-S) was 8 µg/mL. The “MIC +TO” value (S. aureus Sa228c; aac(6′)-aph(2″), ant(4′)-Ia) was 8 to 16 µg/mL, the “Fold (−TO/+TO)” value (S. aureus Sa228c) was 8 fold and the “Fold (−TO/+TO)” value ([5]; 8 μg/ml of tomatidine) was 2 fold. The “MIC +TO” value ([5]; 8 μg/ml of tomatidine) was 0.06 µg/mL, the “MIC −TO” value ([5]; absence of tomatidine) was 0.12 µg/mL and the “growth, visually evaluated” value (normal strain CF07-L) was “inhibits the growth”. The MIC (S. aureus SCV CF07-S; CF07-S + HQNO at 20 μg/ml) was 4 to 8 µg/mL, the MIC (S. aureus SCV CF07-S; CF07-S, SCV) was 8 µg/mL and the MIC (S. aureus SCV CF07-S; CF07-S, without HQNO) was 8 µg/mL. For the same substance, the MIC [6] was 0.5-1^ μg/ml, the “Fold (−TO/+TO)” value (S. aureus MRSA COL; 8 μg/ml of tomatidine) was 8-16 fold and the “MIC +TO” value (S. aureus MRSA COL; 8 μg/ml of tomatidine) was 0.06 µg/mL. For the same substance, the MIC (S. aureus MRSA COL; Human (SSTI)) was 0.5 to 1 µg/mL, the “MIC −TO” value (S. aureus MRSA COL; absence of tomatidine) was 0.5 to 1 µg/mL and the “Fold (−TO/+TO)” value ([7]; 8 μg/ml of tomatidine) was 4 fold. For the same substance, the “MIC +TO” value ([7]; 8 μg/ml of tomatidine) was 8 µg/mL, the “MIC −TO” value ([7]; absence of tomatidine) was 32 µg/mL and the “average increase of antibacterial activity” value [8] was 8±3 fold. The MIC (S. aureus ATCC 29213 [9]; ATCC 29213 + HQNO at 20 μg/ml) was 4 µg/mL, the MIC (S. aureus ATCC 29213 [9]; ATCC 29213, without HQNO) was 1 µg/mL and the “MIC in presence of CCCP” value (S. aureus ATCC 29213 [9]; ATCC 29213, 1 μg/ml CCCP) was 4 to 8 µg/mL. The MIC (S. aureus ATCC 29213 [9]; ATCC 29213 in BHI) was 1 µg/mL and the MIC (S. aureus ATCC 29213 [9]; ATCC 29213 in MHBCA) was 0.5-1^ μg/ml.
